Test results as given in PubChem BioAssay AID1259407 (Chemical Carcinogenesis Research Information System (CCRIS), 2018).
Active and inactive are the calls of the source. No rule for the calls is given here.

Tested on: CCRIS mutagenicity, Ames/micronucleus/aberration tests
Assay: CCRIS mutagenicity studies
[1] = Test System: AMES SALMONELLA TYPHIMURIUM, Strain/Indicator: TA100, Metabolic Activation: HAMSTER, LIVER, S-9, AROCLOR 1254 (10%), Method: PREINCUBATION
[2] = Test System: AMES SALMONELLA TYPHIMURIUM, Strain/Indicator: TA100, Metabolic Activation: NONE, Method: PREINCUBATION
[3] = Test System: AMES SALMONELLA TYPHIMURIUM, Strain/Indicator: TA100, Metabolic Activation: RAT, LIVER, S-9, AROCLOR 1254 (10%), Method: PREINCUBATION
[4] = Test System: AMES SALMONELLA TYPHIMURIUM, Strain/Indicator: TA1535, Metabolic Activation: HAMSTER, LIVER, S-9, AROCLOR 1254 (10%), Method: PREINCUBATION
[5] = Test System: AMES SALMONELLA TYPHIMURIUM, Strain/Indicator: TA1535, Metabolic Activation: NONE, Method: PREINCUBATION
[6] = Test System: AMES SALMONELLA TYPHIMURIUM, Strain/Indicator: TA1535, Metabolic Activation: RAT, LIVER, S-9, AROCLOR 1254 (10%), Method: PREINCUBATION
[7] = Test System: AMES SALMONELLA TYPHIMURIUM, Strain/Indicator: TA100, Metabolic Activation: RAT, LIVER, S-9, AROCLOR 1254, Method: STANDARD PLATE
[8] = Test System: AMES SALMONELLA TYPHIMURIUM, Strain/Indicator: TA100, Metabolic Activation: NONE, Method: STANDARD PLATE
[9] = Test System: AMES SALMONELLA TYPHIMURIUM, Strain/Indicator: TA1535, Metabolic Activation: NONE, Method: STANDARD PLATE
[10] = Test System: AMES SALMONELLA TYPHIMURIUM, Strain/Indicator: TA1537, Metabolic Activation: NONE, Method: STANDARD PLATE
[11] = Test System: AMES SALMONELLA TYPHIMURIUM, Strain/Indicator: TA98, Metabolic Activation: HAMSTER, LIVER, S-9, AROCLOR 1254 (10%), Method: PREINCUBATION
[12] = Test System: AMES SALMONELLA TYPHIMURIUM, Strain/Indicator: TA98, Metabolic Activation: NONE, Method: PREINCUBATION
[13] = Test System: AMES SALMONELLA TYPHIMURIUM, Strain/Indicator: TA98, Metabolic Activation: RAT, LIVER, S-9, AROCLOR 1254 (10%), Method: PREINCUBATION
[14] = Test System: AMES SALMONELLA TYPHIMURIUM, Strain/Indicator: TA1537, Metabolic Activation: HAMSTER, LIVER, S-9, AROCLOR 1254 (10%), Method: PREINCUBATION
[15] = Test System: AMES SALMONELLA TYPHIMURIUM, Strain/Indicator: TA1537, Metabolic Activation: NONE, Method: PREINCUBATION
[16] = Test System: AMES SALMONELLA TYPHIMURIUM, Strain/Indicator: TA1537, Metabolic Activation: RAT, LIVER, S-9, AROCLOR 1254 (10%), Method: PREINCUBATION
[17] = Test System: AMES SALMONELLA TYPHIMURIUM, Strain/Indicator: TA98, Metabolic Activation: NONE, Method: STANDARD PLATE
[18] = Test System: AMES SALMONELLA TYPHIMURIUM, Strain/Indicator: TA98, Metabolic Activation: RAT, LIVER, S-9, AROCLOR 1254, Method: STANDARD PLATE

CC(C)(COCC1CO1)COCC1CO1 (stereo not drawn)
mutagenic call [1]: active; positive | mutagenic call [2]: active; positive | mutagenic call [3]: active; positive | mutagenic call [4]: active; positive | mutagenic call [5]: active; positive | mutagenic call [6]: active; positive

Cc1c2cc(CO)ccc2nc2c1ccc1ccccc12
mutagenic call [7]: active; positive

O=C(O)C(Cl)CCl (stereo not drawn)
mutagenic call (Test System: AMES SALMONELLA TYPHIMURIUM, Strain/Indicator: TA102, Metabolic Activation: NONE, Method: STANDARD PLATE): inactive; negative | mutagenic call (Test System: AMES SALMONELLA TYPHIMURIUM, Strain/Indicator: TA2638, Metabolic Activation: NONE, Method: STANDARD PLATE): inactive; negative | mutagenic call (Test System: E. COLI, Strain/Indicator: WP2 (PKM101), Metabolic Activation: NONE, Method: STANDARD PLATE): inactive; negative | mutagenic call (Test System: E. COLI, Strain/Indicator: WP2 UVRA (PKM101), Metabolic Activation: NONE, Method: STANDARD PLATE): inactive; negative

c1ccc([C@H]2O[C@@H]2c2ccccc2)cc1
mutagenic call [8]: inactive; negative | mutagenic call [9]: inactive; negative

CCCCCCCC(=O)Nc1snc2ccccc12
mutagenic call [8]: inactive; negative | mutagenic call (Test System: AMES SALMONELLA TYPHIMURIUM, Strain/Indicator: TA100, Metabolic Activation: S-9, Method: STANDARD PLATE): inactive; negative | mutagenic call [10]: inactive; negative | mutagenic call (Test System: AMES SALMONELLA TYPHIMURIUM, Strain/Indicator: TA1537, Metabolic Activation: S-9, Method: STANDARD PLATE): inactive; negative

Nc1ccc(O)c(N)c1
mutagenic call (End Point: IN VITRO CHROMOSOMAL ABERRATIONS, Test System: CHINESE HAMSTER OVARY CELLS, Metabolic Activation: NONE): inactive; negative | mutagenic call (End Point: IN VITRO CHROMOSOMAL ABERRATIONS, Test System: CHINESE HAMSTER OVARY CELLS, Metabolic Activation: RAT, LIVER, S-9, AROCLOR 1254): inactive; negative | mutagenic call [11]: active; positive | mutagenic call [12]: inactive; negative | mutagenic call [13]: active; positive | mutagenic call [1]: inactive; negative | mutagenic call [2]: inactive; negative | mutagenic call [3]: inactive; negative | mutagenic call [4]: inactive; negative | mutagenic call [5]: inactive; negative | mutagenic call [6]: inactive; negative | mutagenic call [14]: inactive; negative | mutagenic call [15]: inactive; negative | mutagenic call [16]: inactive; negative | mutagenic call (Test System: MOUSE LYMPHOMA, Strain/Indicator: L5178Y (TK+/TK-), Metabolic Activation: NONE, Method: SUSPENSION/PLATE): active; positive

O=NN1CCSC1C(O)C(O)C(O)C(O)CO (stereo not drawn)
mutagenic call [12]: inactive; negative | mutagenic call [17]: inactive; negative | mutagenic call (Test System: AMES SALMONELLA TYPHIMURIUM, Strain/Indicator: TA98, Metabolic Activation: RAT, LIVER, S-9, AROCLOR 1254, Method: PREINCUBATION): inactive; negative | mutagenic call [18]: inactive; negative | mutagenic call [2]: active; positive | mutagenic call [8]: active; positive | mutagenic call (Test System: AMES SALMONELLA TYPHIMURIUM, Strain/Indicator: TA100, Metabolic Activation: RAT, LIVER, S-9, AROCLOR 1254, Method: PREINCUBATION): active; positive | mutagenic call [7]: active; positive

CCCCCCCCCCCCCc1ccccc1
mutagenic call [17]: inactive; negative | mutagenic call (Test System: AMES SALMONELLA TYPHIMURIUM, Strain/Indicator: TA98, Metabolic Activation: RAT, LIVER, S-9, AROCLOR 1254 (10%), Method: STANDARD PLATE): inactive; negative | mutagenic call [8]: inactive; negative | mutagenic call (Test System: AMES SALMONELLA TYPHIMURIUM, Strain/Indicator: TA100, Metabolic Activation: RAT, LIVER, S-9, AROCLOR 1254 (10%), Method: STANDARD PLATE): inactive; negative | mutagenic call [9]: inactive; negative | mutagenic call (Test System: AMES SALMONELLA TYPHIMURIUM, Strain/Indicator: TA1535, Metabolic Activation: RAT, LIVER, S-9, AROCLOR 1254 (10%), Method: STANDARD PLATE): inactive; negative | mutagenic call [10]: inactive; negative | mutagenic call (Test System: AMES SALMONELLA TYPHIMURIUM, Strain/Indicator: TA1537, Metabolic Activation: RAT, LIVER, S-9, AROCLOR 1254 (10%), Method: STANDARD PLATE): inactive; negative | mutagenic call (Test System: CHINESE HAMSTER OVARY, Strain/Indicator: CHO (HGPRT), Metabolic Activation: NONE): inactive; negative | mutagenic call (Test System: CHINESE HAMSTER OVARY, Strain/Indicator: CHO (HGPRT), Metabolic Activation: RAT, LIVER, S-9, AROCLOR 1254 (1%)): inactive; negative

CCCCCCC1CO1 (stereo not drawn)
mutagenic call [8]: inactive; negative | mutagenic call [9]: inactive; negative | mutagenic call (Test System: UDS RAT HEPATOCYTES, Strain/Indicator: THY INCORP, Metabolic Activation: NONE): inactive; negative

CNc1ccc2ccc3ccc(O)cc3c2c1
mutagenic call [18]: active; positive | mutagenic call (Test System: AMES SALMONELLA TYPHIMURIUM, Strain/Indicator: TA98, Metabolic Activation: RAT, LIVER, S-9, AROCLOR, Method: STANDARD PLATE): active; positive

CC(=O)c1c(=O)cc(C)oc1=O
mutagenic call (End Point: IN VIVO MICRONUCLEUS, Test System: BONE MARROW POLYCHROMATIC ERYTHROCYTES, Species: MOUSE, Strain/Sex: DDY/MALE, Route: IP): active; positive | mutagenic call (Test System: AMES SALMONELLA TYPHIMURIUM, Strain/Indicator: TA97A, Metabolic Activation: NONE, Method: PREINCUBATION): inactive; negative | mutagenic call (Test System: AMES SALMONELLA TYPHIMURIUM, Strain/Indicator: TA97A, Metabolic Activation: RAT, LIVER, S-9, AROCLOR 1254, Method: PREINCUBATION): inactive; negative | mutagenic call [11]: inactive; negative | mutagenic call [12]: inactive; negative | mutagenic call [13]: inactive; negative | mutagenic call [1]: inactive; negative | mutagenic call [2]: inactive; negative | mutagenic call [3]: inactive; negative | mutagenic call (Test System: AMES SALMONELLA TYPHIMURIUM, Strain/Indicator: TA102, Metabolic Activation: NONE, Method: PREINCUBATION): inactive; negative | mutagenic call (Test System: AMES SALMONELLA TYPHIMURIUM, Strain/Indicator: TA102, Metabolic Activation: RAT, LIVER, S-9, AROCLOR 1254, Method: PREINCUBATION): inactive; negative | mutagenic call [4]: inactive; negative | mutagenic call [5]: inactive; negative | mutagenic call [6]: inactive; negative | mutagenic call [14]: inactive; negative | mutagenic call [15]: inactive; negative | mutagenic call [16]: inactive; negative

O=C1c2ccccc2C(=O)N1CCCN1c2ccccc2Sc2ccc(Cl)cc21
mutagenic call (Test System: AMES SALMONELLA TYPHIMURIUM, Strain/Indicator: TA98, Metabolic Activation: NONE, Method: SPOT TEST): inactive; negative
